Earlier results in the CATMoS acute toxicity set (Mansouri et al. 2021).
Values joined by “and” are separate entries in the source; they are usually repeats but may differ in a detail not shown here. Equal values may be shown once.

Assay: rat acute oral toxicity
Details: in vivo
Excerpt: […]The data set underlying the modeling effort for this project was initially compiled by NICEATM and U.S. EPA’s CCTE. Briefly, LD50 data were collected from rat acute oral systemic toxicity tests, including limit tests, ranges/confidence intervals, and discrete LD50 values. The full data set included 21,200 LD50 entries for 15,688 substances. […] Data were reviewed to ensure that LD50 values with obvious errors in the extracted data such as unit conversion errors (e.g., comma and decimal separator misplacements) were either fixed or removed. After this review, 16,209 LD50 values remained. Many of the chemicals represented had multiple LD50 entries, requiring that a single representative value per Chemical Abstracts Service Registry Number (CASRN) identifier be defined to facilitate modeling efforts. Based on ATWG feedback and to define the representative LD50 as a protective value while accounting for the distribution across multiple LD50s, the median of the lowest quartile was computed using only discrete LD50 values (omitting limit test data and range and confidence interval data). A detailed summary of the data compilation is available online on the NICEATM webpage dedicated to the collaborative modeling project (NTP 2020).
[…][…] For categorical designations, limit test and range/confidence interval LD50 data were integrated wherever possible. As such, the number of chemicals with end point values/calls varies across the modeling end points (Table 3) based on whether chemicals had representative LD50 values and/or other data. If a chemical had both, the representative value was used to determine categorical calls rather than limit test data. Some data were useable only for certain end points and categories depending on the thresholds. For example, ranges that spanned multiple hazard categories were considered only for the binary (very toxic/nontoxic) end points and omitted from rendering a determination for hazard category assignment.
[…]The final data set comprising 11,992 chemicals was split into training and evaluation sets […], respectively. This process was performed semirandomly by ordering chemicals based on the five end points (categorical and continuous LD50 values) and partitioning every fourth record into the evaluation set accordingly. This approach was taken to ensure an equivalent distribution of the LD50 values and the different hazard categories between the training and the evaluation sets without supervised sampling of the chemicals based on structures (Figure 1A). The sources of the chemical structures were also kept equivalent between the two sets, with chemical structures obtained from DSSTox, being the highest quality, representing over 75% of each set (Figure 1B).
In the case of `Cc1nc(Cn2cnc3c2c(=O)n(C)c(=O)n3C)no1`, the LD50 is listed as 1550 mg/kg. For `Cn1cc(OCC(O)CNC(C)(C)C)c2ccccc2c1=O` (stereo not given), the LD50 is listed as 145 mg/kg. In the case of `CCCCCCOCC(O)COc1ccccc1C(=O)O` (stereo not given), the LD50 is listed as 2150 mg/kg. In the case of `CCOP(=S)(OCC)SCS(=O)(=O)CC`, the LD50 is listed as 1.2 mg/kg. For `O=COCC=Cc1ccccc1`, the LD50 is listed as 2900 mg/kg. For `CCCC(C)OC(N)=O` (stereo not given), the LD50 is given as 421 mg/kg. In the case of `CC(Cc1ccccc1)NCCCCl` (stereo not given), the LD50 is listed as 410 mg/kg. For `CN(N=O)c1ccc(N=O)cc1`, the LD50 is listed as 1370 mg/kg. For `COc1cc(N)c(Cl)cc1C(=O)NC1CCNCC1`, the LD50 is listed as 2550 mg/kg. For `CC(=O)c1cc2c(cc1C)C(C)(C)C(C)C2C(C)C` (stereo not given), the LD50 is given as 2220 mg/kg. In the case of `CCOC(=S)C=Cc1ccc(Cl)cc1`, the LD50 is listed as 950 mg/kg. In the case of `CCN1CCC(=C2c3ccccc3CCc3ccccc32)C1C` (stereo not given), the LD50 is listed as 600 mg/kg. In the case of `C=C(F)CO`, the LD50 is listed as 130 mg/kg. For `C=C[Si](Cl)(Cl)CC`, the LD50 is given as 2830 mg/kg. In the case of `CS(=O)(=O)c1nnc(C(F)(F)F)s1`, the LD50 is listed as 312 mg/kg. In the case of `CCOC(=O)OC(C)OC(=O)[C@@H]1N2C(=O)[C@@H](NC(=O)[C@H](N)c3ccccc3)[C@H]2SC1(C)C` (stereo not given in full), the LD50 is listed as 10000 mg/kg. For `CC(=O)Nc1ccc(/N=N/c2c(S(=O)(=O)O)cc3cc(S(=O)(=O)O)cc(NC(C)=O)c3c2O)cc1`, the LD50 is listed as 23200 mg/kg. For `CCCCc1c(OC(=O)C23CC4CC(CC(C4)C2)C3)n(-c2ccccc2)n(-c2ccccc2)c1=O`, the LD50 is listed as 1700 mg/kg. In the case of `CC(C)=CC1C(C(=O)OC(C#N)c2cccc(Oc3ccccc3)c2)C1(C)C` (stereo not given), the LD50 is listed as 318 mg/kg. For `NCCCC1(CCCN)c2ccccc2-c2ccccc21`, the LD50 is listed as 620 mg/kg. In the case of `O=C(O)Cc1ccc2c(c1)C(=O)c1ccccc1CN2`, the LD50 is listed as 810 mg/kg. For `COP(=O)(SC(C)C)SC(C)C`, the LD50 is given as 119 mg/kg. For `CNC(=O)ON=C1CSCCS1`, the LD50 is listed as 15 mg/kg. For `N#CCC(=O)c1ccc(N)cc1`, the LD50 is given as 2260 mg/kg. For `C=CC(=O)N(C)C`, the LD50 is given as 316 mg/kg. In the case of `Cc1nc(NCc2ccccc2)c2cc[nH]c2n1`, the LD50 is given as 80 mg/kg. In the case of `CN1[C@@H]2CC[C@H]1C[C@@H](OC1c3ccccc3CCc3ccccc31)C2`, the LD50 is given as 445 mg/kg. For `NC1CCCCC1`, the LD50 is given as 720 mg/kg and 1650 mg/kg. In the case of `C=CC(=O)NC(C)C`, the LD50 is given as 375 mg/kg. For `O=C1CCc2cc(C(=O)CCN3CCC(Cc4ccccc4)CC3)ccc2N1`, the LD50 is given as 500 mg/kg. In the case of `COP(=O)(OC)OC(=CCl)c1cc(Cl)c(Cl)cc1Cl`, the LD50 is given as 4000 mg/kg. For `C1C[SiH2]C1`, the LD50 is given as 1540 mg/kg. In the case of `COc1ccc(C(OC)C2CCCCC2N2CCCCC2)cc1` (stereo not given), the LD50 is given as 92 mg/kg. For `C/C(=N/Nc1nc(C)cc(C)n1)c1ccccc1C`, the LD50 is listed as 525 mg/kg. In the case of `CN=C(O)O/N=C1/COCS1`, the LD50 is given as 49 mg/kg. In the case of `N#Cc1ccc(N)cc1`, the LD50 is listed as 283 mg/kg. In the case of `CCOP(=S)(OCC)N1C(=O)c2ccccc2C1=O`, the LD50 is listed as 4930 mg/kg. In the case of `Nc1ccccc1Cl`, the LD50 is given as 1020 mg/kg. For `Nc1ccc(-c2ccc(N)cc2)cc1`, the LD50 is given as 309 mg/kg. For `CNC(=O)Oc1cccc(C(C)C)c1Cl`, the LD50 is given as 35 mg/kg. For `N=C(N)SCc1ccccc1`, the LD50 is given as 27 mg/kg. For `CN1C(C(=O)Nc2ccccn2)=C(OC(=O)C23CC4CC(CC(C4)C2)C3)c2sc(Cl)cc2S1(=O)=O`, the LD50 is given as 100 mg/kg. In the case of `Oc1ccc(C(c2ccc(O)cc2)(C(F)(F)F)C(F)(F)F)cc1`, the LD50 is listed as 3400 mg/kg. For `Oc1nc(O)nc(O)n1`, the LD50 is given as 7700 mg/kg. For `O=Nc1ccc(N=O)cc1`, the LD50 is given as 1020 mg/kg. For `Cc1ccc(-c2ccccc2)cc1`, the LD50 is given as 2570 mg/kg. In the case of `CC(O)COC(C)(C)C` (stereo not given), the LD50 is listed as 3770 mg/kg. For `CN(CCC#N)CCC#N`, the LD50 is listed as 890 mg/kg. For `ON=CC(O)(C#Cc1ccccc1)c1ccccc1` (stereo not given), the LD50 is listed as 8750 mg/kg. In the case of `COP(=O)(OC)OC(=CCl)c1cc(Cl)ccc1Cl`, the LD50 is given as 3790 mg/kg. For `NC(=S)Nc1ccc(Cl)cc1`, the LD50 is listed as 15 mg/kg. For `CCN1CC(CC(N)=O)CC2c3cccc4[nH]cc(c34)CC21` (stereo not given), the LD50 is listed as 38.5 mg/kg. In the case of `CC(=O)OCCN(CCC#N)c1ccccc1`, the LD50 is given as 2070 mg/kg. In the case of `CCN(CC)CCOc1ccccc1C(=O)CCc1ccccc1`, the LD50 is listed as 716 mg/kg. For `NCC(O)c1cccc(O)c1` (stereo not given), the LD50 is given as 390 mg/kg. In the case of `CC(O)C(c1ccccc1)N1CCN(CCOc2ccccc2)CC1` (stereo not given), the LD50 is listed as 250 mg/kg. In the case of `CCC1(c2cccc(O)c2)CCCCN(C)C1` (stereo not given), the LD50 is given as 1260 mg/kg. In the case of `CNC(=O)Oc1cc(C)cc(C(C)C)c1`, the LD50 is given as 35 mg/kg. For `C[N+]1(C)CCN(CC(O)(c2ccccc2)C2CCCCC2)CC1` (stereo not given), the LD50 is listed as 958 mg/kg. For `CC1=CCC(=C(C)C)CC1`, the LD50 is listed as 4390 mg/kg. For `CNc1ccc(NCCO)c2c1C(=O)c1ccccc1C2=O`, the LD50 is given as 1340 mg/kg. For `c1cn[nH]c1`, the LD50 is given as 1010 mg/kg. For `COCCOC(=O)C1=C(C)NC(C)=C(C(=O)OC(C)C)C1c1cccc([N+](=O)[O-])c1` (stereo not given), the LD50 is given as 2740 mg/kg. In the case of `CC(=O)CCc1ccccc1`, the LD50 is given as 3200 mg/kg. In the case of `NCCOCNc1ccccc1`, the LD50 is given as 0.625 mg/kg.
